Results on 37 compounds are retold here after US9630956B2, “Compounds useful as inhibitors of ATR kinase” (Vertex Pharmaceuticals Incorporated, priority 2010, dated 2017).

For one test, the target named is full-length ATR (Homo sapiens (Human), UniProt Q13535). Nature of the test: ATR Inhibition Assay (radioactive-phosphate incorporation). The format is biochemical. Particulars: ATR Inhibition Ki(app); 10 μM ATP, 800 μM target peptide, 5 nM full-length ATR, 25° C. How it is done: Compounds were screened for their ability to inhibit ATR kinase using a radioactive-phosphate incorporation assay. Assays were carried out in a mixture of 50 mM Tris/HCl (pH 7.5), 10 mM MgCl2 and 1 mM DTT. Final substrate concentrations were 10 μM [γ-33P]ATP (3 mCi 33P ATP/mmol ATP, Perkin Elmer) and 800 μM target peptide ([…]).
Chain of full-length ATR (Q13535 whole entry): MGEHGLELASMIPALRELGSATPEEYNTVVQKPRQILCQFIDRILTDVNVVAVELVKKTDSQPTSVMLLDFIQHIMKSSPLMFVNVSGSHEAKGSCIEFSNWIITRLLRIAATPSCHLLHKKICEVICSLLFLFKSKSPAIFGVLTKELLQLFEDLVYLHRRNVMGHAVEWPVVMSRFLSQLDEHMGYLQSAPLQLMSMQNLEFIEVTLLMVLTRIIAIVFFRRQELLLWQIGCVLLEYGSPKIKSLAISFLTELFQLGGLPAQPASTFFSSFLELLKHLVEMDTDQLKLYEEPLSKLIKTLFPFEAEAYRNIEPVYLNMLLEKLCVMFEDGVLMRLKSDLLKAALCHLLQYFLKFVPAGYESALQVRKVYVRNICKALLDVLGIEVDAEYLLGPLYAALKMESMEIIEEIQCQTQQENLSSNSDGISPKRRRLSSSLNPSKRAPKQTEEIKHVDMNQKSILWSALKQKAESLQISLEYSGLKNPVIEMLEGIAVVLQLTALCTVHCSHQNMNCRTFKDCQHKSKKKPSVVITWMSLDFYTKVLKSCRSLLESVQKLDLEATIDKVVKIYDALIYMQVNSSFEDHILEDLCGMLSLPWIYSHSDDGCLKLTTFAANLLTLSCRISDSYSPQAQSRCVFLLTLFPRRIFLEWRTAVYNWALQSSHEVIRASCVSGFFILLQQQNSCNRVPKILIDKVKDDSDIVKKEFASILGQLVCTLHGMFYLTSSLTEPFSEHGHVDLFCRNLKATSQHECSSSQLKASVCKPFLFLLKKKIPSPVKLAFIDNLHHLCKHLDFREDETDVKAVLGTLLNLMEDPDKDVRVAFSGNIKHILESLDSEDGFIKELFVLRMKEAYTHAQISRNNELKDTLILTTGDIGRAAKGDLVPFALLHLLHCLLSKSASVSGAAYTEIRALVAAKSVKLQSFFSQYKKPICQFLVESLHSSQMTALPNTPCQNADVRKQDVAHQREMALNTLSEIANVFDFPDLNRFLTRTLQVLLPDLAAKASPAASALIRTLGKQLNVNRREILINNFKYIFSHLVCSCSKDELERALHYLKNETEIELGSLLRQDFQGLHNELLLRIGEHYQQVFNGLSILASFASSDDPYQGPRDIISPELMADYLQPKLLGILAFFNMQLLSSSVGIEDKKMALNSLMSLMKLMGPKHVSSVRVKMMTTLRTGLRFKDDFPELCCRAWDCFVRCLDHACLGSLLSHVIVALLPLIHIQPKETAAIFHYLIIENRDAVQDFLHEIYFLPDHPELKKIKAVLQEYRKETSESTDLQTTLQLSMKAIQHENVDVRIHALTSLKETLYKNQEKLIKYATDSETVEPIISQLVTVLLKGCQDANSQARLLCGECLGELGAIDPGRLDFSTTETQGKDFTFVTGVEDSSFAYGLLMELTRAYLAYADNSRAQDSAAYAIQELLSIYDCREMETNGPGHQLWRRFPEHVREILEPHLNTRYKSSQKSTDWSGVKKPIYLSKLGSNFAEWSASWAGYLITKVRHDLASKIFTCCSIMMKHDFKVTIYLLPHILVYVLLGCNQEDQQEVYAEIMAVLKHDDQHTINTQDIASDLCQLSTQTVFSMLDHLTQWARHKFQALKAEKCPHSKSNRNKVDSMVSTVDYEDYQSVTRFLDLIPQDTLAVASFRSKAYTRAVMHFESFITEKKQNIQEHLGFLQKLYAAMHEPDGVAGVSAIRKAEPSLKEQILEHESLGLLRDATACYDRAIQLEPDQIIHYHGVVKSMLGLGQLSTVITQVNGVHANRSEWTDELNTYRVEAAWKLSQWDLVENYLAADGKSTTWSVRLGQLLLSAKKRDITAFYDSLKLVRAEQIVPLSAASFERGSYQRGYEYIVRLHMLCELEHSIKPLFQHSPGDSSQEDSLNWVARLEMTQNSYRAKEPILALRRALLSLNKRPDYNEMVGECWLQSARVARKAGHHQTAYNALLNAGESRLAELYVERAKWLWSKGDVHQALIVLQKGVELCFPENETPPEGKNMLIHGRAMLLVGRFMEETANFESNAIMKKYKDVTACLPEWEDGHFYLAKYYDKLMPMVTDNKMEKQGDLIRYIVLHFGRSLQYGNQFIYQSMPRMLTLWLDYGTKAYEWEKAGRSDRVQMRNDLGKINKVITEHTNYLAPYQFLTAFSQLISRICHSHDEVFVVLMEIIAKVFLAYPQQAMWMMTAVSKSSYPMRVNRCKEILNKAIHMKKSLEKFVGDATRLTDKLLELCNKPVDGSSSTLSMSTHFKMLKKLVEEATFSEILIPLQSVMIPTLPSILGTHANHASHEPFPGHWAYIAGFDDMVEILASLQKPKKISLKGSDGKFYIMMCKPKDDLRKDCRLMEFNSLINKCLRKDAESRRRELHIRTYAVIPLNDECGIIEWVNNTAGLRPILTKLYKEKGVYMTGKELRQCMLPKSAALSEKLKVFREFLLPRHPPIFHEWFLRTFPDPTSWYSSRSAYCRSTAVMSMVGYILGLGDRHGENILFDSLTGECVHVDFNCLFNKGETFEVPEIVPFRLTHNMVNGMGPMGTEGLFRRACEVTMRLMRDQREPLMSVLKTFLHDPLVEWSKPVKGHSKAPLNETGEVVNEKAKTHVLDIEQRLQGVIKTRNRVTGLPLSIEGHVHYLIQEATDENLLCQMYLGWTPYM
Assays were carried out at 25° C. in the presence of 5 nM full-length ATR. An assay stock buffer solution was prepared containing all of the reagents listed above, with the exception of ATP and the test compound of interest. 13.5 μL of the stock solution was placed in a 96 well plate followed by addition of 2 μL of DMSO stock containing serial dilutions of the test compound (typically starting from a final concentration of 15 μM with 3-fold serial dilutions) in duplicate (final DMSO concentration 7%). The plate was pre-incubated for 10 minutes at 25° C. and the reaction initiated by addition of 15 μL [γ-33P]ATP (final concentration 10 μM).
The reaction was stopped after 24 hours by the addition of 30 μL 0.1 M phosphoric acid containing 2 mM ATP. A multiscreen phosphocellulose filter 96-well plate (Millipore, Cat no. MAPHNOB50) was pretreated with 100 μL 0.2M phosphoric acid prior to the addition of 45 μL of the stopped assay mixture. The plate was washed with 5×200 μL 0.2M phosphoric acid. After drying, 100 μL Optiphase ‘SuperMix’ liquid scintillation cocktail (Perkin Elmer) was added to the well prior to scintillation counting (1450 Microbeta Liquid Scintillation Counter, Wallac).
After removing mean background values for all of the data points, Ki(app) data were calculated from non-linear regression analysis of the initial rate data using the Prism software package (GraphPad Prism version 3.0cx for Macintosh, GraphPad Software, San Diego Calif., USA).
Below is a chart showing the ATR Inhibition Ki values of compounds of the disclosure.

Test [1] deals with HCT116 colorectal cancer cells. The test is described as follows: Cisplatin Sensitization Assay (96h cell viability MTS). The format is cell-based. Particulars: concentration of compound required to reduce the IC50 of Cisplatin alone by at least 3-fold, 96h MTS. How it is done: Compounds can be screened for their ability to sensitize HCT116 colorectal cancer cells to Cisplatin using a 96h cell viability (MTS) assay. […] Compounds and Cisplatin are then both added simultaneously to the cell media in 2-fold serial dilutions from a top final concentration of 10 μM as a full matrix of concentrations in a final cell volume of 200 μl, and the cells are then incubated at 37° C. in 5% CO2. After 96h, 40 μl of […] (Promega G358a) is added to each well and the cells are incubated for 1 h at 37° C. in 5% CO2.

pKi: −log10 of the molar value. Where only a bound is given, the exact number is not on record here.

For the compound `CNCc1ccc(-c2cc(-c3nc(-c4ccc(=O)n(CC5CC5)c4)cnc3N)on2)cc1` [Compound I-62], the negative logarithm of the Ki (pKi) at full-length ATR was ≥ 8.30. In addition, the “CP3 shift” value in test [1] turned out to be 0.078 µM.

`CCNCc1ccc(-c2cc(-c3nc(-c4ccc(=O)n(C(C)C)c4)cnc3N)on2)cc1` [Compound I-63]: the pKi on full-length ATR is ≥ 8.30. In test [1], the “CP3 shift” value worked out at 0.156 µM.

With `CNCc1ccc(-c2cc(-c3nc(-c4ccc(=O)n(C(C)C)c4)cnc3N)on2)c(OC)c1` [Compound I-64], on full-length ATR, the pKi was ≥ 8.30. Besides, in test [1], the “CP3 shift” value was found to be 0.078 µM.

For `CNCc1ccc(-c2cc(-c3nc(-c4ccc(=O)n(CC5(C)CC5)c4)cnc3N)on2)cc1` [Compound I-68], at full-length ATR, the pKi was ≥ 8.30. The “CP3 shift” value in test [1] is 0.039 µM.

Regarding `CNCc1ccc(-c2cc(-c3nc(-c4ccc(=O)n(CC5CC5C)c4)cnc3N)on2)cc1` (centres unmarked) [Compound I-72], the negative-log Ki (pKi) at full-length ATR is ≥ 8.30. For the same compound, the “CP3 shift” value in test [1] was determined as 0.078 µM.

Take `CNCc1ccc(-c2cc(-c3nc(-c4ccc(=O)n(CCC#N)c4)cnc3N)on2)cc1` [Compound I-73]: the pKi on full-length ATR was ≥ 8.30. The “CP3 shift” value in test [1] is 0.156 µM.

With `CCC(Cn1cc(-c2cnc(N)c(-c3cc(-c4ccc(CNC)cc4)no3)n2)ccc1=O)OC` (centres unmarked) [Compound I-74], the pKi on full-length ATR was ≥ 8.30. For the same compound, the “CP3 shift” value in test [1] came to 0.078 µM.

With `CC[C@H](C)CCn1cc(-c2cnc(N)c(-c3cc(-c4ccc(CNC)cc4)no3)n2)ccc1=O` [Compound I-77], the negative-log Ki (pKi) on full-length ATR was ≥ 8.30. Further, the “CP3 shift” value in test [1] is 0.039 µM.

Turning to `CNCc1ccc(-c2cc(-c3nc(-c4c[nH]c(=O)c(Br)c4)cnc3N)on2)cc1` [Compound I-78], the pKi at full-length ATR was ≥ 8.30. Moreover, the “CP3 shift” value in test [1] was 0.625 µM.

Consider `CNCc1ccc(-c2cc(-c3nc(-c4ccc(=O)n(CC5(CO)CC5)c4)cnc3N)on2)cc1` [Compound I-80], for which, at full-length ATR, the pKi was ≥ 8.30. The “CP3 shift” value in test [1] amounted to 0.078 µM.

In the case of `CCn1cc(-c2cnc(N)c(-c3cc(-c4ccc(CNC)cc4)no3)n2)ccc1=O` [Compound I-81], at full-length ATR, the negative-log Ki (pKi) was ≥ 8.30. The “CP3 shift” value in test [1] stood at 0.156 µM.

On to `CCC(C)n1cc(-c2cnc(N)c(-c3cc(-c4ccc(CNC)cc4)no3)n2)ccc1=O` (centres unmarked) [Compound I-82], for which the pKi at full-length ATR was ≥ 8.30. Also, in test [1], the “CP3 shift” value was 0.079 µM.

Turning to `CCC(CC)n1cc(-c2cnc(N)c(-c3cc(-c4ccc(CNC)cc4)no3)n2)ccc1=O` [Compound I-83], the pKi on full-length ATR is ≥ 8.30. Also, the “CP3 shift” value in test [1] was 0.02 µM.

With `CNCc1ccc(-c2cc(-c3nc(-c4ccc(=O)n(CC5CCCCO5)c4)cnc3N)on2)cc1` (centres unmarked) [Compound I-87], on full-length ATR, the pKi is ≥ 8.30. Moreover, the “CP3 shift” value in test [1] stood at 0.078 µM.

For the compound `CCc1cc(-c2cnc(N)c(-c3cc(-c4ccc(CNC)cc4)no3)n2)c[nH]c1=O` [Compound I-89], the pKi on full-length ATR is ≥ 8.30. The “CP3 shift” value in test [1] stood at 0.312 µM.

Take `CNCc1ccc(-c2cc(-c3nc(-c4c[nH]c(=O)c(Cl)c4)cnc3N)on2)cc1` [Compound I-90]: the pKi on full-length ATR was ≥ 8.30. The “CP3 shift” value in test [1] came out at 0.625 µM.

Consider `Nc1ncc(-c2ccc(=O)n(C3CCCC3)c2)nc1-c1cc(-c2ccc(CNC3CC3)cc2)no1` [Compound I-92], for which the pKi at full-length ATR is ≥ 8.30. Further, the “CP3 shift” value in test [1] turned out to be 0.078 µM.

As to `CCC(CC)n1cc(-c2cnc(N)c(-c3cc(-c4ccc(CNC5CC5)cc4)no3)n2)ccc1=O` [Compound I-93], the pKi on full-length ATR was ≥ 8.30. Further, the “CP3 shift” value in test [1] was 0.02 µM.

Turning to `CCC(CC)n1cc(-c2cnc(N)c(-c3cc(-c4cccc(C(C)N)c4)no3)n2)ccc1=O` (centres unmarked) [Compound I-94], the negative logarithm of the Ki (pKi) at full-length ATR was ≥ 8.30. Moreover, in test [1], the “CP3 shift” value is 0.007 µM.

With `CNCc1ccc(-c2cc(-c3nc(-c4ccc(=O)n(CCC5CC5)c4)cnc3N)on2)cc1` [Compound I-96], the pKi at full-length ATR was ≥ 8.30. Besides, in test [1], the “CP3 shift” value worked out at 0.078 µM.

With `CC[C@H](C)Cn1cc(-c2cnc(N)c(-c3cc(-c4ccc(CNC)cc4)no3)n2)ccc1=O` [Compound I-97], on full-length ATR, the pKi is ≥ 8.30. In test [1], the “CP3 shift” value was 0.078 µM.

For `CNCc1ccc(-c2cc(-c3nc(-c4ccc(=O)n(C(C)C(=O)N5CCCC5)c4)cnc3N)on2)cc1` (centres unmarked) [Compound I-102], the negative logarithm of the Ki (pKi) on full-length ATR was ≥ 8.30. The “CP3 shift” value in test [1] turned out to be 0.078 µM.

Consider `CC(N)c1cccc(-c2cc(-c3nc(-c4ccc(=O)n(CC5(C)CC5)c4)cnc3N)on2)c1` (centres unmarked) [Compound I-105], for which the pKi at full-length ATR is ≥ 8.30. For the same compound, the “CP3 shift” value in test [1] was 0.02 µM.

For the compound `CC(N)c1cccc(-c2cc(-c3nc(-c4ccc(=O)n(CC5CC5C)c4)cnc3N)on2)c1` (centres unmarked) [Compound I-106], on full-length ATR, the pKi is ≥ 8.30. Moreover, the “CP3 shift” value in test [1] came out at 0.039 µM.

Take `CNCc1ccc(-c2cc(-c3nc(-c4c[nH]c(=O)c(C5CCCC5)c4)cnc3N)on2)cc1` [Compound I-107]: the pKi on full-length ATR is ≥ 8.30. Besides, in test [1], the “CP3 shift” value turned out to be 0.039 µM.

Regarding `CCCC(CC)c1cc(-c2cnc(N)c(-c3cc(-c4ccc(CNC)cc4)no3)n2)c[nH]c1=O` (centres unmarked) [Compound I-116], on full-length ATR, the pKi is ≥ 8.30. The “CP3 shift” value in test [1] was 0.02 µM.

Turning to `Nc1ncc(-c2c[nH]c(=O)c(C3CCCC3)c2)nc1-c1cc(-c2ccc(CNC3CC3)cc2)no1` [Compound I-119], the pKi at full-length ATR was ≥ 8.30. Besides, in test [1], the “CP3 shift” value came to 0.156 µM.

`CCCC(CC)c1cc(-c2cnc(N)c(-c3cc(-c4ccc(CNC5CC5)cc4)no3)n2)c[nH]c1=O` (centres unmarked) [Compound I-120]: at full-length ATR, the pKi is ≥ 8.30. For the same compound, in test [1], the “CP3 shift” value came to 0.078 µM.

On to `CNCc1ccc(-c2cc(-c3nc(-c4ccc(=O)n(CCC5CCCC5)c4)cnc3N)on2)cc1` [Compound I-122], for which, at full-length ATR, the pKi was ≥ 8.30. In addition, in test [1], the “CP3 shift” value was 0.078 µM.

As for `CNCc1ccc(-c2cc(-c3nc(-c4c[nH]c(=O)c(-c5ccccc5)c4)cnc3N)on2)cc1` [Compound I-123], the pKi on full-length ATR is ≥ 8.30. The “CP3 shift” value in test [1] came out at 0.078 µM.

As for `CC1CCC(n2cc(-c3cnc(N)c(-c4cc(-c5cccc(C(C)N)c5)no4)n3)ccc2=O)C1` (centres unmarked) [Compound I-124], the pKi at full-length ATR was ≥ 8.30. Also, in test [1], the “CP3 shift” value is 0.039 µM.

In the case of `CNCc1ccc(-c2cc(-c3nc(-c4ccc(=O)n(C(C)(C)C#N)c4)cnc3N)on2)cc1` [Compound I-125], the negative-log Ki (pKi) at full-length ATR was ≥ 8.30. Besides, the “CP3 shift” value in test [1] worked out at 0.015 µM.

Take `CCC(CC)n1cc(-c2cnc(N)c(-c3cc(-c4ccc(CNCCF)cc4)no3)n2)ccc1=O` [Compound I-126]: the pKi on full-length ATR was ≥ 8.30. The “CP3 shift” value in test [1] was 0.625 µM.

As to `CCC(CC)n1cc(-c2cnc(N)c(-c3cc(-c4ccc(CNC5CC(F)(F)C5)cc4)no3)n2)ccc1=O` [Compound I-127], on full-length ATR, the pKi is ≥ 8.30. The “CP3 shift” value in test [1] was 0.312 µM.

In the case of `CCC(CC)n1cc(-c2cnc(N)c(-c3cc(-c4ccc(CNC5CC5)cc4F)no3)n2)ccc1=O` [Compound I-128], the pKi at full-length ATR is ≥ 8.30. Besides, the “CP3 shift” value in test [1] came to 0.078 µM.

As to `CCC(CC)n1cc(-c2cnc(N)c(-c3cc(-c4ccc(CNC)cc4F)no3)n2)ccc1=O` [Compound I-129], the pKi on full-length ATR was ≥ 8.30. In addition, in test [1], the “CP3 shift” value was found to be 0.02 µM.

As for `CCC(CC)n1cc(-c2cnc(N)c(-c3cc(-c4ccc(CN[C@@H]5CCC(F)C5)cc4)no3)n2)ccc1=O` (some centres unmarked) [Compound I-130], on full-length ATR, the pKi is ≥ 8.30. In addition, the “CP3 shift” value in test [1] is 0.078 µM.
